Laboratory results published in patent US9732370B2, “Method for the determination of the presence of an antibiotic in a fluid” (DSM IP ASSETS B.V., priority 2013, dated 2017).

System: test organism of Delvotest SP-NT
Assay: Microbial growth inhibition test (DSM Delvotest SP-NT, reference or modified with streptomycin in the test medium): detection limit of antibiotics in spiked milk
Format: cell-based
Conditions: for Detection limit: spiked milk, 64° C., cut-off Z-value 0; for Effect of an aminoglycoside antibiotic in the test medium on the sensitivity of the test for the antibiotic: aminoglycoside antibiotic (streptomycin) added to test medium versus reference test
Method: As a reference, a commercially available test system without any added aminoglycoside antibiotic (DSM Delvotest® SP-NT, plates containing 8×12 test wells) was used. In addition, two different test systems were prepared by modifying the reference test by adding the aminoglycoside antibiotic streptomycin to the test medium in a final concentration of 100 ppb or 1000 ppb. The detection limits of four different antibiotics were measured in the reference test and in the tests with modified medium containing different concentrations of streptomycin. The antibiotics that were measured were streptomycin and dihydrostreptomycin (DH-streptomycin) (both belonging to the aminoglycoside antibiotic family), penicillin G (belonging to the beta-lactam antibiotic family), and oxytetracycline (belonging to the tetracycline antibiotic family) Five different concentrations of each antibiotic (see Table 1) were measured. Hundred microliter antibiotic-free milk or hundred microliter milk spiked with the respective concentrations of antibiotic was added to the test medium (170 μl) and incubated at 64° C. in a water bath. The tests were visually determined at the point in time where a sample without antibiotic had changed colour from purple to yellow. At this point, the plates were cooled in an ice bath for 5 minutes. The cooled plates were scanned on a Delvo® scanner. The colour of each well was expressed as a Z-value; a purple colour gives rise to a positive Z-value, while a yellow colour has a negative Z-value. The Z-value of test results with samples without antibiotic is typically […]. Detailed description of the scanning technology and the expression of the colour in Z-values are described in WO 03/033728. For the determination of the detection limit for each antibiotic, a dose-response function (Z-value versus concentration of antibiotic) was constructed. The detection limit is defined as the antibiotic concentration where the S-shaped dose-response function has a Z-value equal to the cut-off value. For Delvotest® SP-NT a cut-off Z-value of 0 was used.

[1] = Streptomycin concentration in test 100 ppb
[2] = Streptomycin concentration in test 1000 ppb
[3] = Streptomycin concentration in test 0 ppb (reference Delvotest SP-NT)

SMILES: CN[C@@H]1[C@H](O[C@H]2[C@H](O[C@H]3[C@H](O)[C@@H](O)[C@H](NC(=N)N)[C@@H](O)[C@@H]3NC(=N)N)O[C@@H](C)[C@]2(O)CO)O[C@@H](CO)[C@H](O)[C@H]1O [DH-streptomycin, dihydrostreptomycin]
- Detection limit [1]: 982 ppb
- Detection limit [2]: 445 ppb
- Effect of an aminoglycoside antibiotic in the test medium on the sensitivity of the test for the antibiotic: increases

SMILES: CN(C)[C@@H]1C(O)=C(C(N)=O)C(=O)[C@@]2(O)C(O)=C3C(=O)c4c(O)cccc4[C@@](C)(O)[C@H]3[C@H](O)[C@@H]12 [Oxytetracycline, oxytetracycline]
- Detection limit [3]: 264 ppb
- Detection limit [1]: 239 ppb
- Detection limit [2]: 343 ppb
- Effect of an aminoglycoside antibiotic in the test medium on the sensitivity of the test for the antibiotic: no effect

SMILES: CC1(C)S[C@@H]2[C@H](NC(=O)Cc3ccccc3)C(=O)N2[C@H]1C(=O)O [Penicillin G, penicillin G]
- Detection limit [3]: 1.04 ppb
- Detection limit [1]: 0.95 ppb
- Detection limit [2]: 1.07 ppb
- Effect of an aminoglycoside antibiotic in the test medium on the sensitivity of the test for the antibiotic: no effect

SMILES: [H]/N=C(/N)N[C@H]1[C@H](O)[C@@H](O)[C@H](O[C@@H]2O[C@@H](C)[C@](O)(C=O)[C@H]2O[C@@H]2O[C@@H](CO)[C@H](O)[C@@H](O)[C@@H]2NC)[C@@H](N/C(N)=N\[H])[C@@H]1O [Streptomycin, streptomycin]
- Detection limit [1]: 1186 ppb
- Detection limit [2]: 676 ppb
- Effect of an aminoglycoside antibiotic in the test medium on the sensitivity of the test for the antibiotic: increases
